Literature values, collected in patent US20030125243A1, “Synthesis of cyclic peptides” (priority 2000, published 2003).

Molecular target: αvβ3 (Homo sapiens, UniProt P05106+P06756)
Conditions: background statement, Haubner et al. 1996

αvβ3, sequence (P06756 31-889 limits assumed): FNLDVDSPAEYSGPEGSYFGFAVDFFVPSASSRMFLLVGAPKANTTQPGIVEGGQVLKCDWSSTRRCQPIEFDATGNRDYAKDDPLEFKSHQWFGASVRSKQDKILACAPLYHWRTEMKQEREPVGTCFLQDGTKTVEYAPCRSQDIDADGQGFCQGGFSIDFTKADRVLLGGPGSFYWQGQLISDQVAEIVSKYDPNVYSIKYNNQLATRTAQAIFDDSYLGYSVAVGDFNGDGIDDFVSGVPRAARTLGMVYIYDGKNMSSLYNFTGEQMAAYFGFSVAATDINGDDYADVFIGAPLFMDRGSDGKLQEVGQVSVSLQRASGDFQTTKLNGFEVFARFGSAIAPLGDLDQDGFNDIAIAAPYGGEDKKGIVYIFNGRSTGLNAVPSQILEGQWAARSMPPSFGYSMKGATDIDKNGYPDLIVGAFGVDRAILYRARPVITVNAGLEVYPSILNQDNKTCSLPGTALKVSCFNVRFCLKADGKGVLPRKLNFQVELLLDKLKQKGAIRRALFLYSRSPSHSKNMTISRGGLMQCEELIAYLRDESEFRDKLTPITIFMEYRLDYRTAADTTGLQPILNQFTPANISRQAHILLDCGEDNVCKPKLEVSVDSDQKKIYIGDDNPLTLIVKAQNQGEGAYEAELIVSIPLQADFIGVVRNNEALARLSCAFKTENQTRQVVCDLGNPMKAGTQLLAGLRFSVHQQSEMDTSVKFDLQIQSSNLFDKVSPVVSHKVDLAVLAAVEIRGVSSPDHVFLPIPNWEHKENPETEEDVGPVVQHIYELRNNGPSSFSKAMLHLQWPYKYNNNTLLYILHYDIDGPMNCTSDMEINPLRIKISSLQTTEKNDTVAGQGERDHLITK
αvβ3, sequence (P06756 891-1048 partner limits assumed): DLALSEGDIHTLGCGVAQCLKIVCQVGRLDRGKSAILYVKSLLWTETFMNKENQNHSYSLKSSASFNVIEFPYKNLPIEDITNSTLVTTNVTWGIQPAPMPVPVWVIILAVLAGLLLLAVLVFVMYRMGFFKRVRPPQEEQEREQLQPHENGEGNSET
αvβ3, sequence (P05106 27-788): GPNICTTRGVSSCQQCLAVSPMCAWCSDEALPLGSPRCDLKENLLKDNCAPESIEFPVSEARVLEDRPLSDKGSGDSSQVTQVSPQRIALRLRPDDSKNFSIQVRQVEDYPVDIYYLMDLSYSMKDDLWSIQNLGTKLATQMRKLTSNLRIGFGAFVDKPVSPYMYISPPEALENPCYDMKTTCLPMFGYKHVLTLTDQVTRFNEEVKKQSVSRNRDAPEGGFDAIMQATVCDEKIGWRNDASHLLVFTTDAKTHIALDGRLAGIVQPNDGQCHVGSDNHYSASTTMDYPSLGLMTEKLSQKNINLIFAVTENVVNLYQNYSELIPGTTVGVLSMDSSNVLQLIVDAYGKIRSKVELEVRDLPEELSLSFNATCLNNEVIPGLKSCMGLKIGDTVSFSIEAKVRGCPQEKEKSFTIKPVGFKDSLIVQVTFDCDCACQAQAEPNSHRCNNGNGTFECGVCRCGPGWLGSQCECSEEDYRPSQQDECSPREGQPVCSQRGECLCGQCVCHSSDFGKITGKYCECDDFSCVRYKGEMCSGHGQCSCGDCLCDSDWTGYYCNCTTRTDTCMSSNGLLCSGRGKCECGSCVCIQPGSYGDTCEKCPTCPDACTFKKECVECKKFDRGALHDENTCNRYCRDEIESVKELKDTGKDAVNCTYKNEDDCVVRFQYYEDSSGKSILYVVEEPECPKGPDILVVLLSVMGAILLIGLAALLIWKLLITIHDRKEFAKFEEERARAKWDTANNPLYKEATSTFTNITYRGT

binding to αvβ3 (potency and selectivity): high potency and selectivity
Substance: cRGDfK
